Measurements published in patent US4897391A, “Tricyclic anti-allergy, antiinflammatory and anti-hyperproliferative compounds” (Schering Corporation, priority 1988, dated 1990).
Where a name gives a salt, the structure may show the parent alone. Read-outs that look alike come from different tables or passages of the source.

Assays:
5-lipoxygenase = target: T1, 5-lipoxygenase (Mus musculus, UniProt P48999); assay: 5-Lipoxygenase Assay (MC-9 mast cells, 5-HETE and LTC4 production); assay type: cell-based, murine; settings: for inhibition at 3.12 µM: MC9, 3.12 μM dose; for inhibition at 6.25 µM: MC9, 6.25 μM dose; for inhibition at 12.5 µM: MC9, 12.5 μM dose; for inhibition at 25 µM: MC9, 25 μM dose
T1 construct: Preincubate MC-9 cells (0.39 ml at 7.5×10^6 cells/ml) without or with test compound; endogenous in cells; host or cells: MC-9 murine mast cell clone (interleukin-3-dependent)
T1 sequence (P48999 1-674): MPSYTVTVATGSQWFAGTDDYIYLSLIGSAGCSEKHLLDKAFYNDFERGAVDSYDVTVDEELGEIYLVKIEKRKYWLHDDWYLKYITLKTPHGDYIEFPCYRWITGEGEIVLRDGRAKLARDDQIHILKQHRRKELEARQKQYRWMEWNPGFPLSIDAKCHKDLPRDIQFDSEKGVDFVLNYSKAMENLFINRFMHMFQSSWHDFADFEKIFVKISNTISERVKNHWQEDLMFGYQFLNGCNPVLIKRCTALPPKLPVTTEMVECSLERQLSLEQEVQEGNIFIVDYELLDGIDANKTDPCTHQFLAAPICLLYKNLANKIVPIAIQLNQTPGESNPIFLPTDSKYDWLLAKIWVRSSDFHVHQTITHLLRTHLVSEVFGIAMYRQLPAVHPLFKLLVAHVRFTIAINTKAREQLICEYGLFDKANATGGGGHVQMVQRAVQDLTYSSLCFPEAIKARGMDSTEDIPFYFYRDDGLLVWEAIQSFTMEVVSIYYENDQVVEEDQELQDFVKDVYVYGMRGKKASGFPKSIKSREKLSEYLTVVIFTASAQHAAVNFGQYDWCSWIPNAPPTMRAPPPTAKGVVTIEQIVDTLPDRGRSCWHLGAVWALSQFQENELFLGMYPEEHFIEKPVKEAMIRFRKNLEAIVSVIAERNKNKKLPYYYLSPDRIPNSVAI
Experimental: Preincubate MC-9 cells (0.39 ml at 7.5×10^6 cells/ml) without or with test compound dissolved in dimethylsulfoxide (DMSO) vehicle (to a final volume 1 μl) for 4 minutes then incubate for 5 minutes with [^14 C]arachidonic acid (Amersham, 59 Ci/mole) at a 9 μM final concentration, and A23187 (Calbiochem) at a 1 μM final concentration in 10 μl of water:ethanol (9:1). Stop the reaction by addition of methanol (0.4 ml), and remove cellular debris by centrifugation. Run aliquots (250 μl) of the incubations on a Waters two-pump HPLC system fitted with a Waters radial compression column (C18, 10 micron, 8×100 mm, micro-Bondapak) and C18 "Guard Pak". Initially elute the column at 3 ml/min with water:methanol:acetic acid (67:33:0.08) containing 1 mM EDTA adjusted to pH 6.0 with ammonium hydroxide (Pump A). At 4 minutes, establish a linear gradient to reach 100% methanol (Pump B) at 9 minutes. Between 13 and 14 minutes, exchange for the initial eluting solvent and by 19 minutes the column will be reequilibrated for the next sample. Analyze the effluent by a continuous flow radioactivity monitor (model ROMONA-D) interfaced with a Hewlett Packard Lab Automation System for quantitation of radioactive products. […] Doses in table 2 are 50 μM unless otherwise noted.

[1] = test system: Peptidoleukotriene Release in Guinea Pig Lung; assay: Peptidoleukotriene Release Inhibition in Lung Assay; assay type: cell-based; settings: Cavia porcellus; final concentration of 50 μm (so in the source); ovalbumin challenge, sensitized guinea pig lung
Text: The anti-allergy method of this invention is identified by tests that measure inhibition of leukotriene release in sensitized guinea pigs by compounds of the invention. This procedure is as follows.
First, kill sensitized guinea pigs by a blow to the head, remove the lungs and clean them of visible connective tissue, trachea and large blood vessels. Slice the lungs from individual animals into fragments approximately 1 mm in thickness using a McIlwain tissue chopper and wash them with oxygenated Tyrode's buffer. Transfer weighed aliquots (approximately 400 mg wet weight) of lung into vials containing 2 ml of fresh Tyrode's solution (containing 10 mM cysteine) and incubate in the presence or absence of test compound for 12 minutes at 37° C., challenge the tissues with 20 μg ovalbumin/ml (final concentration) and incubate for 15 minutes. To measure leukotriene release, extract an aliquot of supernatant fluid with 4 volumes of 100% ethanol. After removal of the precipitated protein, dry the clear fluid under a stream of N2 gas. Measure the leukotriene content by a radioimmunoassay using [^3 H]LTC4 (leukotriene C4) and antiserum obtained from New England Nuclear. […] Calculate percent inhibition of leukotriene release by comparing for each lung the release in the presence of the test compound to that in the absence of test compound.

[2] = MC9, 50 μM dose, MC-9 cells, read-out: % Inhibition 5-HETE
[3] = MC9, 50 μM dose, MC-9 cells, read-out: % Inhibition LTC4
[4] = MC-9 cells, read-out: % Inhibition 5-HETE
[5] = MC-9 cells, read-out: % Inhibition LTC4

Row | inhibition at 50 µM (5-lipoxygenase; [2]) | Compound | inhibition at 50 µM [1] | other results
1 | 99% | Cc1c2n(c(=O)c3cc(OC(=O)CN)cc(OC(=O)CN)c13)CCCC2 [8,10-bis[(aminoacetyl)oxy]-11-methyl-1,2,3,4-tetrahydro-6H-benzo[b]quinolizine-6-one dihydrochloride] | – | –
2 | 31% | CC(=O)Oc1cc(OC(C)=O)c2c(-c3ccccc3)c(C)[nH]c(=O)c2c1 [5,7-bis(acetyloxy)-3-methyl-4-phenyl-1(2H)-isoquinolinone] | 12% | inhibition at 50 µM (5-lipoxygenase; [3]): 27%
3 | 21% | CC(=O)Oc1cc(OC(C)=O)c2c(-c3ccccc3)c3n(c(=O)c2c1)CCCC3 [8,10-bis(acetyloxy)-1,2,3,4,-tetrahydro-11-phenyl-6H-benzo[b]quinolizin-6-one] | 66% | –
4 | 31% | O=c1[nH]c2c(c3c(O)cc(O)cc13)CCC2 | – | –
5 | 5% | CC(=O)Oc1ccc2c(c1)C(=O)N1CCCCC1C2(C)O (stereo not shown) [8-acetyloxy-1,2,3,4,11,11a-hexahydro-11-hydroxy-11-methyl-6H-benzo[b]quinolizin-6-one] | – | –
6 | 18% | O=c1c2cc(O)cc(O)c2c(O)c2n1CCCC2 [1,2,3,4-tetrahydro-8,10,11-trihydroxy-6H-benzo[b]quinolizin-6-one] | 28% | –
7 | 74% | CC(=O)Oc1ccc2c(=O)n3c(c(C)c2c1OC(C)=O)CCCC3 [9,10-bis(acetyloxy)-1,2,3,4-tetrahydro-11-methyl-6H-benzo[b]quinolizin-6-one] | 84% | –
8 | 19% | CC(=O)Oc1ccc2c(C)c3n(c(=O)c2c1)CCCC3 [8-acetyloxy-1,2,3,4-tetrahydro-11-methyl-6H-benzo[b]quinolizin-6-one] | 9% | –
9 | – | Cc1c2n(c(=O)c3cc(O)cc(O)c13)CCCC2 [1,2,3,4-tetrahydro-8,10-dihydroxy-11-methyl-6H-benzo[b]quinolizin-6-one, disodium salt] | 71% | inhibition at 50 µM (5-lipoxygenase; MC9, read-out: % Inhibition 5-HETE): 88%
10 | 2% | CC(=O)Oc1cc(OC(C)=O)c2c(OC(C)=O)c3n(c(=O)c2c1)CCCC3 [8,10,11-tris(acetyloxy)-1,2,3,4-tetrahydro-6H-benzo[b]quinolizin-6-one] | 39% | –
11 | 31% | O=c1[nH]c2c(c3c(O)cc(O)cc13)CCCC2 [1,3,4,5-tetrahydro-8,10-dihydroxy-phenanthridin-6(2H)-one] | – | –
12 | 43% | CC(=O)Oc1cc(OC(C)=O)c2c(C)c[nH]c(=O)c2c1 [5,7-bis(acetyloxy)-4-methyl-1(2H)-isoquinolinone] | – | inhibition at 50 µM (5-lipoxygenase; [3]): 40%
13 | 5% | CC(=O)Oc1cc(OC(C)=O)c2c(-c3ccccc3)c(C)n(C)c(=O)c2c1 [5,7-bis(acetyloxy)-2,3-dimethyl-4-phenyl-1(2H)-isoquinolinone] | 45% | –
14 | 18% | CC(=O)Oc1cc(OC(C)=O)c2c(-c3ccccc3)c3n(c(=O)c2c1)CCC3 [7,9-bis(acetyloxy)-2,3-dihydro-10-phenyl-6H-pyrrolo[1,2-b]isoquinolin-5(1H)-one] | 76% | inhibition at 50 µM (5-lipoxygenase; [3]): 10%
15 | 23% | O=C1c2cc(O)cc(O)c2C(O)(c2ccccc2)C2CCCCN12 (stereo not shown) [1,2,3,4,11,11a-hexahydro-8,10,11-trihydroxy-11-phenyl-6H-benzo[b]quinolizin-6-one] | – | inhibition at 50 µM (5-lipoxygenase; [3]): 32%
16 | 98% | CC(=O)Oc1ccc2c(C)c3n(c(=O)c2c1OC(C)=O)CCCC3 [D, 7,8-bis(acetyloxy)-1,2,3,4-tetrahydro-11-methyl-6H-benzo[b]quinolizin-6-one] | 62% | –
17 | 56% | CC(=O)Oc1cc(OC(C)=O)c2c3c(n(C)c(=O)c2c1)CCC3 | – | –
18 | 19% | CC(=O)Oc1cc(OC(C)=O)c2c(-c3ccccc3)c[nH]c(=O)c2c1 [5,7-bis(acetyloxy)-4-phenyl-1(2H)-isoquinolinone] | – | inhibition at 50 µM (5-lipoxygenase; [3]): 16%
19 | 45% | Cc1c2n(c(=O)c3cc(OC(=O)C(C)(C)C)cc(OC(=O)C(C)(C)C)c13)CCCC2 [8,10-bis(2,2-dimethyl-1-oxopropoxy)-11-methyl-1,3,4,6-tetrahydro-6H-benzo[b]quinolizin-6-one] | 5% | –
20 | 56% | CC(=O)Oc1cc(OC(C)=O)c2c3c([nH]c(=O)c2c1)CCCC3 [8,10-bis(acetyloxy)-1,3,4,5,6-tetrahydro-6(2H)-phenanthridinone] | 36% | inhibition at 50 µM (5-lipoxygenase; [3]): 41%
21 | – | CC(=O)Oc1cc(OC(C)=O)c2c(C)c3n(c(=O)c2c1)CCCC3 [A, 8,10-bis(acetyloxy)-1,2,3,4-tetrahydro-11-methyl-6H-benzo[b]quinolizin-6-one] | 69% | inhibition at 3.12 µM (5-lipoxygenase; [4]): 50%; inhibition at 3.12 µM (5-lipoxygenase; [5]): 57%; inhibition at 6.25 µM (5-lipoxygenase; [4]): 65%; inhibition at 6.25 µM (5-lipoxygenase; [5]): 59%; inhibition at 12.5 µM (5-lipoxygenase; [4]): 62%; inhibition at 12.5 µM (5-lipoxygenase; [5]): 54%; inhibition at 25 µM (5-lipoxygenase; [4]): 93%; inhibition at 25 µM (5-lipoxygenase; [5]): 90%

Row | Compound | inhibition at 50 µM (5-lipoxygenase; [2]) | inhibition at 50 µM [1] | other results
22 | Cc1c2n(c(=O)c3cc(O)cc(O)c13)CCCC2 [C, 1,2,3,4-tetrahydro-8,10-dihydroxy-11-methyl-6H-benzo[b]quinolizin-6-one] | 100% | 61% | –
